According to PubChem BioAssay (NCI):
Several values for one entry are separate records, joined by “and”; a condition that tells them apart may be missing. Identical values can stand only once.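 Results reflect a 48-hour exposure of cells in 96-well plates to compound at five concentrations. GI50 is the concentration that inhibits growth by half. The concentration for full growth arrest is given as TGI.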

Key:
Experiment in all cases: NCI-60 cell line screen, 48 h
BT-549 breast = test system: BT-549 breast
CCRF-CEM leukemia = test system: CCRF-CEM leukemia
EKVX NSCLC = test system: EKVX NSCLC
HS 578T breast = test system: HS 578T breast
T-47D breast = test system: T-47D breast

Row | SMILES | GI50 (BT-549 breast) [µM] | TGI (BT-549 breast) | GI50 (CCRF-CEM leukemia) | TGI (CCRF-CEM leukemia) | GI50 (EKVX NSCLC) [µM] | TGI (EKVX NSCLC) | GI50 (HS 578T breast) [µM] | TGI (HS 578T breast) [µM] | GI50 (T-47D breast) | TGI (T-47D breast) [µM]
1 | O=C(O)c1ccccc1NCn1nc(-c2ccccc2O)oc1=S | 73.8 | > 100 µM | 10.6 µM | 36.4 µM | > 100 | > 100 µM | > 100 | > 100 | 68.7 µM | > 100
2 | O=C(Nc1ccc(-n2cc(-c3ccncc3)c(-c3ccc(Cl)c(O)c3)n2)cc1)c1cc(C(F)(F)F)cc(C(F)(F)F)c1 | 13.3 | 91.2 µM | 4.87 µM | > 100 µM | 22 | > 100 µM | 5.32 | > 100 | 2.16 µM | 9.35
3 | Cn1cc(-c2ccc3ncc(-c4ccc(CC(=O)Nc5cc(C(C)(C)C)nn5C)cc4)cc3c2)cn1 | 0.589 | 2.78 µM | 0.81 µM | 16.6 µM | 1.88 | > 20 µM | 0.798 | > 20 | 0.617 µM | 5.91
4 | O=C1Nc2ccc(-c3cccnc3)cc2/C1=C/c1cc(Br)c(O)c(Br)c1 | 6.05 | > 18.9 µM | 5.43 µM | > 25 µM | 10.2 | > 25 µM | 5.67 | > 22 | 10.6 µM | > 25
5 | Cc1cc(OC2OC(CO)C(O)C(O)C2O)ccc1O (centres undefined) | – | > 100 µM | – | > 100 µM | – | > 100 µM | – | > 100 | – | > 100
6 | OCCNc1nc2ccccc2c2[nH]c3ccccc3c12 | 1.73 | 6.68 µM | 0.654 µM | 10.7 µM | 2.14 | 15.5 µM | 0.71 | 4.57 | 0.366 µM | 2.29
7 | C[C@]12CCc3nc(Nc4ccc(O)cc4)sc3C1=CC[C@@H]1[C@@H]2CC[C@]2(C)/C(=N/NC(N)=S)CC[C@@H]12 | 1.47 | 3.99 µM | 0.629 µM | > 100 µM | 1.57 | 3.61 µM | 1.75 | 6.36 | 1.51 µM | 3.57
8 | Cc1ccccc1Nc1cc(O)c2c(=O)cc(-c3ccccc3)oc2c1 | 4.03 | > 100 µM | 2.25 µM | > 100 µM | 3.35 | > 100 µM | – | – | 2.96 µM | > 100
9 | CCN1C(=O)N(CC)C2C1NC(=S)N2/N=C/C=C/c1ccccc1 (centres undefined) | 0.225 | 13 µM | 0.128 µM | > 100 µM | 0.634 | > 100 µM | 0.0824 | > 100 | 21.5 µM | > 100
10 | CC(C)(C)O/N=C/c1cc(NC(=S)c2ccccc2)ccc1Cl | – | 35.1 µM | – | 74.5 µM | – | 40.7 µM | – | 63 | – | 62.5
11 | N#CN1CC[C@H](C(=O)Nc2ncc(-c3ccccc3)s2)C1 | 0.156 | 0.821 µM | 0.271 µM | > 100 µM | 1.43 | 3.28 µM | 0.811 | 5.05 | 0.483 µM | 3.35
12 | COc1cccc(-c2cc(=O)c3cc(N4CCN(C)CC4)ccc3[nH]2)c1 | – | – | 0.598 µM | 5.89 µM | 2.96 | – | – | 4.88 | – | –
13 | OCc1ccc(-c2ccc(-c3ccc(CO)o3)o2)o1 | > 100 | > 100 µM | > 100 µM | > 100 µM | – | – | > 31.2 | > 62.6 | 22.7 µM | > 100
14 | O=C1c2cccc3c(N4CCOCC4)ccc(c23)C(=O)N1CCN1CCN(CCCCCN2CCN(CCN3C(=O)c4cccc5c(N6CCOCC6)ccc(c45)C3=O)CC2)CC1 | > 100 | > 100 µM | 32.9 µM | > 100 µM | > 100 | > 100 µM | > 100 | > 100 | > 100 µM | > 100
15 | N=C(N)n1cc(/C=N/N=C(N)N)cn1 | – | > 100 µM | – | > 100 µM | – | > 100 µM | – | > 100 | – | > 100
16 | Oc1cn(-c2ccc(Cl)cc2)nc1-c1n[nH]c(=S)n1-c1ccc(F)cc1 | 16.5 | 56.9 µM | 7.29 µM | > 100 µM | 27.5 | 91.1 µM | 29.1 | > 100 | > 100 µM | > 100
17 | O=C(Nc1nc2ccc(S(=O)(=O)Nc3ccc(C4(C(F)(F)F)CC4)cc3)cc2[nH]1)c1cnccn1 | 1.91 | 16.1 µM | – | – | 3.04 | 15 µM | 2.57 | 13.5 | 3.8 µM | 23.9
18 | COC(=O)c1ccc(NC(N)=NCCC(C)(C)c2ccc(C(F)(F)F)cc2)nc1 | 4.85 | 18.1 µM | 3.01 µM | 11 µM | – | – | 2.98 | 9.9 | 1.62 µM | 4.71
19 | NC1=NC(c2ccccc2Cl)c2c(n[nH]c2N)N1 (centres undefined) | 27.4 | > 100 µM | 4.59 µM | > 100 µM | 44.2 | > 100 µM | > 100 | > 100 | 26.1 µM | > 100
20 | CCN(CC)CCNc1n[n+]([O-])c2cc([N+](=O)[O-])ccc2[n+]1[O-] | – | 8.85 µM and 8.27 µM and 3.64 µM | 0.263 µM and 0.111 µM and 0.138 µM | 1.1 µM and 0.841 µM and 0.999 µM | – | 8.38 µM and 5.78 µM and 5.3 µM | – | 54.2 | 1.34 µM and 0.381 µM and 0.779 µM | 3.22
21 | COc1ccc(-c2cnc(-c3ccncc3-c3cccc(OC)c3)o2)cc1 | 0.154 | 13.9 µM | 0.0389 µM | 16 µM | 1.04 | 25.1 µM | 0.0354 | 20.2 | 2.58 µM | 35.1
22 | Cc1ccc2ccc3c4ccccc4ccc3c2c1 | 30.9 | > 100 µM | 22 µM | 52.4 µM | – | – | 27.7 | > 100 | 23 µM | 74.6
23 | Cc1ccc(C(=O)Nc2ccc(Oc3cc4cnn(C)c4cc3-c3cn[nH]c3)c(F)c2)c(=O)n1-c1ccc(F)cc1 | 7.05 | > 100 µM | > 100 µM | > 100 µM | – | – | 7.35 | > 100 | 7.28 µM | > 78.8
